From patent US20080004310A1, “LYOPHILIZED PHARMACEUTICAL COMPOSITION” (priority 2006, published 2008)
Counter-ions that a name gives are not always drawn. Like-named read-outs stand apart in the source and are kept apart here.

What was measured:
[1] = system: patient with erectile dysfunction; assay: Treatment of a patient having erectile dysfunction by injection of the reconstituted lyophilized composition; type: in vivo; details: for treatment effect on erectile dysfunction: general method of treatment of Example 3, single lyophilized agent only
Excerpt: In one embodiment, a lyophilized composition may be used to treat a patient having erectile dysfunction. The lyophilized composition is formed by first providing an erectile inducing amount of at least one lyophilized compound selected from papverine hydrochloride, phentolamine mesylate, and alprostadil. The lyophilized composition is then reconstituted with a pharmaceutically acceptable solvent, such as sterilized water, to produce a reconstituted pharmaceutical solution. The reconstituted pharmaceutical solution is then administered to the patient. Once the lyophilized compounds are reconstituted, the reconstituted pharmaceutical solution may be administered to the patient by a variety of methods, including, but not limited to orally or by injection. In one embodiment, the composition is administered by injection. Any suitable method of injection, such as intracavernosal, intravenous, intraarterial, intramuscular, intraperitoneal, intraportal, intradermal or subcutaneous may be used.
A person, 75 kilogram (kg) […] patient is diagnosed with having erectile dysfunction. The patient is instructed to inject the lypholized preparation of 30 mg/ml papaverine, 1.0 mg/ml phentolamine mesylate, and 10 μg/ml alprostadil on a daily basis, if this is the intended frequency of sexual activity. The lyophilized papaverine, phentolamine, and alprostadil are prepared according to Example 1. The patient is examined after one month.
A 70 kg patient is apparently in good health. They present complaints of a loss of sexual desire and frequent erectile dysfunction. They report that although they are periodically interested in initiating sexual relations, on most occasions they are unable to maintain a high level of interest sufficiently long to initiate or to adequately respond to their spouse's initiating sexual activity. […] 1.0 mg/ml of lyophilized phentolamine is given to […]. The reconstituted phentolamine is injected about 0.5 hours before the patient intended to engage in sexual activity. The patient is examined after one month. They report that they take the drug combination 2-3 times per week.
Following the general method of treatment described in Example 3, non-critical variations are made to the composition of Example 3 such that only 10 μg/ml of lyophilized alprostadil is used.
Following the general method of treatment described in Example 3, non-critical variations are made to the composition of Example 3 such that only 30 mg/ml of lyophilized papaverine hydrochloride is used.

[2] = Accelerated aging of lyophilized composition (assay of active components after reconstitution); type: physicochemical; details: accelerated conditions 40° C./75% RH
Protocol: Aliquots of the clear solution (3 ml) were filtered through a sterilizing 0.22 um filter into lyophilization vials (5 ml). The filled lyophilization vials were topped, but not sealed, with lyophilization stoppers and freeze-dried according the following procedure. The topped vials were placed into a commercial freeze-drier. The temperature of the drier was lowered to about −40° C. and maintained at that temperature for at least 6 hours. […] Following the three temperature increasing steps, the vials were sealed under vacuum, the freeze-drier was returned to normal atmospheric pressure, and the vials were removed from the freeze-drier. In accelerated aging conditions, the active components of the lyophilized compositions of the present invention have an extended shelf live of as much as 120 days. The accelerated aging data for one, three, and four weeks is set out in Table 1. In Table 1, each week of accelerated aging corresponds to about one month of normal aging. [table]

[3] = general solubility, not lyophilized; cited from earlier work
[4] = Week One, each week about one month of normal aging

% of Expected ([2]; Week Four) [%] | Assayed Conc. ([2]; Week Four) [mg/mL] | % of Expected ([2]; Week One) [%] | Assayed Conc. ([2]; Week One) [mg/mL] | % of Expected ([2]; Week Three) [%] | Assayed Conc. ([2]; Week Three) | SMILES | treatment effect on erectile dysfunction [1] | solubility [3] | solubility (physchem) [mg/mL] | Assayed Conc. [2, 4] [mg/mL] | maintenance of erection ([1]; 70 kg patient, 1.0 mg/ml, injected about 0.5 hours before sexual activity, 2-3 times per week, examined after one month) | sexual desire / motivation ([1]; 70 kg patient, 1.0 mg/ml, injected about 0.5 hours before sexual activity, examined after one month)
95 | 0.0095 | 105 | 0.0105 | 100 | 0.01 mg/mL | CCCCC[C@H](O)/C=C/[C@H]1[C@H](O)CC(=O)[C@@H]1CCCCCCC(=O)O [Alprostadil, alprostadil] | same positive treatment effect |  |  |  |  | 
100 | 1.0 | 100 |  | 92 | .92 mg/mL | Cc1ccc(N(CC2=NCCN2)c2cccc(O)c2)cc1 [Phentolamine Mesylate, phentolamine mesylate] |  |  |  | 1.0 | no difficulty maintaining an erection to completion of sexual intercourse | feels motivated to initiate sexual activity

SMILES | % of Expected ([2]; Week Four) [%] | Assayed Conc. ([2]; Week Four) [mg/mL] | % of Expected ([2]; Week One) [%] | Assayed Conc. ([2]; Week One) [mg/mL] | % of Expected ([2]; Week Three) [%] | Assayed Conc. ([2]; Week Three) | treatment effect on erectile dysfunction [1] | solubility [3] | solubility (physchem) [mg/mL] | Assayed Conc. [2, 4] [mg/mL] | maintenance of erection ([1]; 70 kg patient, 1.0 mg/ml, injected about 0.5 hours before sexual activity, 2-3 times per week, examined after one month) | sexual desire / motivation ([1]; 70 kg patient, 1.0 mg/ml, injected about 0.5 hours before sexual activity, examined after one month)
COc1ccc(Cc2nccc3cc(OC)c(OC)cc23)cc1OC [Papaverine HCl, papaverine hydrochloride] | 78 | 23.4 | 65.7 |  | 67.7 | 20.3 mg/mL | same positive treatment effect | about 30 mg/ml | ~90 | 19.7 |  | 
